The values below come from US11666584B2, “Steroidal hormones for the treatment and prevention of wave burst arrhythmia” (ASSISTANCE PUBLIQUE—HOPITAUX DE PARIS, priority 2016, dated 2023).

The target of data set [1] is T1, IKr potassium channel (Homo sapiens, UniProt Q12809). The procedure: Statistics: ns represents p>0.1. Various tests (Chi^2 test with trend, one-way ANOVA with Tukey or Kruskal-Wallis post-test with Dunn's post-test) were used. The quantitative data are presented as a mean±standard error or median with interquartile range.
T1 sequence (Q12809 whole entry): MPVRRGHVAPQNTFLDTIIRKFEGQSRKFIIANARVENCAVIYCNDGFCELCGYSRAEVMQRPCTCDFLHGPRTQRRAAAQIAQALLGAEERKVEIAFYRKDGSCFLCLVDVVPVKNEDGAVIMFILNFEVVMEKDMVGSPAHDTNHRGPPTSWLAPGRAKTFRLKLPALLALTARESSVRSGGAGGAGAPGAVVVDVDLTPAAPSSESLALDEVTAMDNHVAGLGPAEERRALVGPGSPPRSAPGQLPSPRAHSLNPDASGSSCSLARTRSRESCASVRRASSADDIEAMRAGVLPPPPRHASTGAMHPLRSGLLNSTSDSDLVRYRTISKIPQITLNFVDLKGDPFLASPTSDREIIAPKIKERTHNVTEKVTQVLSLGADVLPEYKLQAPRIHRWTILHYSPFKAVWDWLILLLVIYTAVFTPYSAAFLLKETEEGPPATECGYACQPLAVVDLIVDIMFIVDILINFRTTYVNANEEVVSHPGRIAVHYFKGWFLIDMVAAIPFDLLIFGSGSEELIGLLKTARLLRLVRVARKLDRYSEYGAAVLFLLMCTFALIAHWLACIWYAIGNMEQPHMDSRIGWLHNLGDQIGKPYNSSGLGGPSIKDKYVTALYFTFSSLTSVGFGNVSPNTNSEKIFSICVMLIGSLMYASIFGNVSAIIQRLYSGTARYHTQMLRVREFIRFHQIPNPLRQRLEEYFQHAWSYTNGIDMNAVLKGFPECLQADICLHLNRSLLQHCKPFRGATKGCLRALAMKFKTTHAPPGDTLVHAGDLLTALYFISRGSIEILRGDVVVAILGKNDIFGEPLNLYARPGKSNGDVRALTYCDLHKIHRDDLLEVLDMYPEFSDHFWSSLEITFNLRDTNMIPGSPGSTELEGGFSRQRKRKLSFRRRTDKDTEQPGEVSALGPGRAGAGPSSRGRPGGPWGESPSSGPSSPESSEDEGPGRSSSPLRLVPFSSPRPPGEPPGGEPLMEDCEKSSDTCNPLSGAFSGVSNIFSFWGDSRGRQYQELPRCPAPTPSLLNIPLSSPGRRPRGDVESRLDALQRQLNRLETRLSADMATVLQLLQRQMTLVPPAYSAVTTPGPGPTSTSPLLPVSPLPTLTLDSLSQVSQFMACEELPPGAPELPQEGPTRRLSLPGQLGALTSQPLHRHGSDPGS
The PC1 value is obtained by analysis by main components of the variables ΔQTc (%), ΔTpTe (%) and ΔTAmp (%) and quantitatively reflects the IKr inhibition obtained three hours after taking sotalol.
The ΔQTcF, ΔTpTe and ΔTAmp were also calculated.

The conditions of data set [2]: characteristic of the pill's progestogen; cited from earlier work.
The target in data set [3] is T2, androgen receptor (NR3C4) (Homo sapiens, UniProt P10275).
T2 sequence (P10275 1-920): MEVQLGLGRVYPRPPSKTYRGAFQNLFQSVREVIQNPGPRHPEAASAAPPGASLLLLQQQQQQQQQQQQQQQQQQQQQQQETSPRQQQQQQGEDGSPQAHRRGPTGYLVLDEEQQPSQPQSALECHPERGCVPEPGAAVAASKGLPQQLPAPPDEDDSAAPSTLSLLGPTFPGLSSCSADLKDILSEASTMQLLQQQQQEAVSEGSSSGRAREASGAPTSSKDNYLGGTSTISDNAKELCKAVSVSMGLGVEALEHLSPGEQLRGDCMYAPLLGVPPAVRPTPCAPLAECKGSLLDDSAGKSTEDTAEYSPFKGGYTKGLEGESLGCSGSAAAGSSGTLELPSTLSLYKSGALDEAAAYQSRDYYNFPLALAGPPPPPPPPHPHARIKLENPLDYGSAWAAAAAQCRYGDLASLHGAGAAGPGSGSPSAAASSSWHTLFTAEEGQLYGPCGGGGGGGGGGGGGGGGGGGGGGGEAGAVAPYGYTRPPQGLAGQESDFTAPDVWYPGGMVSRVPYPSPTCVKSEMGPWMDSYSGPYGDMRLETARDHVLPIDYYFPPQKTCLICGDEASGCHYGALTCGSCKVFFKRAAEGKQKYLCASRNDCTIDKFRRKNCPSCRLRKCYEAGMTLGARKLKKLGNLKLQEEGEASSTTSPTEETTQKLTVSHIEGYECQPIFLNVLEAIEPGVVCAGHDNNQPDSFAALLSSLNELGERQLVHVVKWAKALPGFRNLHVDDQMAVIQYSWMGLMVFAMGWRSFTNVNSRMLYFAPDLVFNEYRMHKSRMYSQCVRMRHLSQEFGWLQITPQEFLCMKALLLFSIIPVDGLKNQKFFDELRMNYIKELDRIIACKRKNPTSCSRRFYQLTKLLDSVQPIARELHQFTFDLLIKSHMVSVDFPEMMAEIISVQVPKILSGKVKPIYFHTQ
Conditions: characteristic of the progestogen; cited from earlier work.

Data set [4] deals with transgenic rabbits with a long QT interval. Conditions: cited from earlier work.
Data set [5] deals with T1, IKr potassium channel. The data set is described as follows: ECG changes three hours after a single oral dose of 80 mg sotalol in healthy volunteers (Example 1). Type of data set: in vivo. Further details: from tissue; host or cells: heart of living human volunteers (in vivo ECG). To be noted: for decrease in TAmp / increase in TpTe: H3 after 80 mg sotalol vs basal; for subjects exhibiting a double peak (notch) / subjects exhibiting a double peak (notch), proportion: after 80 mg sotalol. The procedure: Results obtained on a cohort of 995 volunteers in good health, from 18 to 60 years old, of European or North African origin, were used for the development of a marker representative of inhibition of the IKr potassium channel.
Briefly, the electrocardiogram (ECG) of the patients (each one in triplicate, for 10 seconds) was recorded after 10 minutes at rest lying on their back. A single oral dose of 80 mg of sotalol was then given to the patients and the ECG monitoring was continued. Three hours after the sotalol had been taken, the ECG was again recorded (in triplicate) after the subjects had remained lying on their back for 10 minutes.
The QTcF (QT corrected using Fridericia's formula), TpTe (interval between the first peak and the end of the T wave), TAmp (amplitude of the first peak of the T wave) and the presence of double peaks in the T wave (called notches) were quantified. The Fridericia correction (QTcF) was used to correct the QT with respect to the heart rate, in accordance with the ICH guidelines E14.
TpTe was measured using the tangent method, in triplicate, on a representative heart beat (averaged representation of an ECG of 10 seconds) on the V3, V4 and V5 derivations. In the event of a double peak of the T wave (notch), the peak taken into consideration was the first peak, even if the amplitude of the T wave was smaller for this peak. The average value obtained was retained. In the event of it being impossible to measure TpTe on V3, V4 or V5, the measurement was instead carried out on V2 (for V3), or V6 (for V4/V5).
In order to measure TAmp, positioning was on the site of the maximum amplitude of the first peak of the T wave on a representative beat (averaged representation of an ECG of 10 seconds) on the DII, V2 and V3 leads. The average of the TAmp values resulting from these three leads, and measured on three different ECGs of 10 seconds (in triplicate), was calculated and retained. If it was not possible to measure a TAmp on one of these leads (in particular because of a low value (<0.1 mV)), the V4 lead was used.
QTcF was measured using the tangent method on the DII lead for three consecutive beats and the average value of an evaluation in triplicate was retained.
For these parameters, the difference between the value obtained at H3 and the basal value was measured. This difference was expressed as percentage relative to the basal value, and the calculations were carried out such that the value calculated is positive.
The following calculations were therefore carried out: ΔQTcF (%)=(QTcF at H3−QTcF basal)/(QTcF basal)×100 ΔTpTe (%)=(TpTe at H3−TpTe basal)/(TpTe basal)×100 ΔTAmp (%)=(TAmp basal−TAmp at H3)/(TAmp basal)×100
In order to evaluate the double peaks (notches), all the ECGs were evaluated independently by two investigators. The patients were described as notchers or non-notchers, in the event of agreements between the two investigators.
The statistical analyses were carried out with the R software (https://www.r-project.org/).

The subject of a further data set is torsades de pointes. Briefly: Clinical case: testosterone in a person with hypogonadism and arrhythmic storm on torsades de pointes (Example 3). Type of data set: in vivo, human. The procedure:
Peripheral hypogonadism was identified in a person suffering from ischemic cardiopathy and from Erdheim-Chester disease with arrhythmic storm on torsades de pointes with long QT and notching (double peak (notch) of the T wave) promoted by iatrogenesis and bradycardia with more than seven episodes in less than one week.
Testosterone (Androtardyl, testosterone enantate 250 mg/ml) was administered to the patient in amounts which made it possible to maintain a testosterone level making it possible to correct their hypogonadism, the bradycardia was corrected and an implantable defibrillator was implanted as secondary prevention.

[6] abbreviates: three hours after 80 mg sotalol, difference between groups (FIG. 3).
Setting [7] is: first of the two cohorts (exploration).
[8] abbreviates: second of the two cohorts (replication).
Where [9] appears, read: three hours after single oral dose of 80 mg sotalol vs basal.

Like-named read-outs stand apart in the source and are kept apart here.

Consider `C#C[C@]1(O)CC[C@H]2[C@@H]3CCC4=CCCC[C@@H]4[C@H]3C(=C)C[C@@]21CC` [desogestrel], for which the “incidence of double peaks (notches)” value at IKr potassium channel [1] (female, human, in vivo, 3 h) is 7.3%. In addition, at IKr potassium channel [1] (in vivo), the “effect with regard to the appearance of a double peak (notch) of the T wave” value was “protective” and the “risk of drug-induced IKr inhibition” value is listed as “neutral”. In addition, the Progestogenic activity entry in data set [2] was “High”.
In the case of `C[C@]12CCC3=C4CCC(=O)C=C4CC[C@H]3[C@@H]1CC[C@@]2(O)CC#N` [dienogest], in data set [3], the Androgenicity result is given as “low androgenic activity, or even an anti-androgenic activity”.
With `C[C@]12CCC(=O)C=C1[C@@H]1C[C@@H]1[C@H]1[C@@H]3[C@@H]4C[C@@H]4[C@@]4(CCC(=O)O4)[C@@]3(C)CC[C@@H]12` [drospirenone], the “risk of drug-induced IKr inhibition” value on IKr potassium channel [1] (conclusion in words, by pill type) is “greatest risk”. Also, at IKr potassium channel [1] (setting [6]), the “increase in QTcF greater than that of patients taking levonorgestrel” value came to 7.0 ± 2.7 ms and the “increase in QTcF greater than that of patients without hormonal contraception” value turned out to be 6.6 ± 2.6 ms. Besides, the “incidence of double peaks (notches)” value at IKr potassium channel [1] (three hours after administration of Sotalol, by pill type (FIG. 4)) came to 25.8%. In addition, in data set [2], the Progestogenic activity result was “Intermediate”.
`C#C[C@]1(O)C=C[C@H]2[C@@H]3CCC4=CC(=O)CC[C@@H]4[C@H]3CC[C@@]21CC` [gestodene]: the “incidence of double peaks (notches)” value on IKr potassium channel [1] (female, human, in vivo, 3 h) is given as 23.5%. Moreover, the Progestogenic activity entry in data set [2] is recorded as “High”. Besides, the Androgenicity entry in data set [3] is recorded as “Intermediate/variable”.
Consider `C#C[C@]1(O)CC[C@H]2[C@@H]3CCC4=CC(=O)CC[C@@H]4[C@H]3CC[C@@]21CC` [levonorgestrel], for which the “effect with regard to the increase in QT” value on IKr potassium channel [1] (conclusion in words) is on record as “protective”. Also, the “incidence of double peaks (notches)” value at IKr potassium channel [1] (female, human, in vivo, 3 h) was 16.4%. Further, at IKr potassium channel [1] (in vivo), the “risk of drug-induced IKr inhibition” value is “neutral”. Moreover, the Progestogenic activity result in data set [2] was “High”.
For `CC(=O)[C@H]1CC[C@H]2[C@@H]3CCC4=CC(=O)CC[C@]4(C)[C@H]3CC[C@]12C` [progesterone], the “effect on sudden death” value in data set [4] is on record as “protective effect”.
Take `CC(C)NCC(O)c1ccc(NS(C)(=O)=O)cc1` (centres unmarked) [sotalol]: the “average QTc increase observed with sotalol” value on IKr potassium channel [1] (study of the present application, as summarised) turned out to be 20 ms. Further, the “decrease in TAmp” value is recorded as 13.6±15.7% on IKr potassium channel [5] (exploration cohort) and 12.8±15.3% on IKr potassium channel [5] (replication cohort). For the same compound, the entries for the “increase in TpTe” value on IKr potassium channel [5] (exploration cohort) and on IKr potassium channel [5] (replication cohort) were 14.2±15.6% and 15.9±20.5%, respectively. Also, the “subjects exhibiting a double peak (notch)” value was 40 subjects at IKr potassium channel [5] (setting [7]) and 51 subjects on IKr potassium channel [5] (setting [8]). Moreover, the figures for the “subjects exhibiting a double peak (notch), proportion” value at IKr potassium channel [5] (setting [7]) and at IKr potassium channel [5] (setting [8]) were 8% and 10%, respectively. In addition, the PC1 value on IKr potassium channel [5] (non-notchers, exploration cohort) was 0.3±1.1; at IKr potassium channel [5] (non-notchers, replication cohort), 0.3±1.1; at IKr potassium channel [5] (notchers, exploration cohort, PC1 correlates negatively with ΔQTc, ΔTAmp, ΔTpTe) it was −2.5±1.5; at IKr potassium channel [5] (notchers, replication cohort), −2.3±1.8. Also, the “absolute change in the duration of QTcF” value at IKr potassium channel [5] (setting [9]) came to 21.4 ± 14 ms. Further, at IKr potassium channel [5] (setting [9]), the “relative change in the duration of QTcF” value amounted to 5.5±3.5%.
On to `CCCCCCC(=O)O[C@H]1CC[C@H]2[C@@H]3CCC4=CC(=O)CC[C@]4(C)[C@H]3CC[C@]12C` [testosterone, testosterone enantate], for which the repolarization entry in the data set on torsades de pointes (following the introduction of testosterone, one patient) is given as “normalized”. Besides, the “recurrence of torsades de pointes (defibrillator monitoring)” value in the data set with torsades de pointes (three months following the introduction of testosterone, despite reintroduction of QTc-prolonging drug (Vemurafenob)) is “absence of recurrence of torsades de pointes”.
